# Assay results: patent publication EP0906078B1, “TOPICAL USE OF TEMPOL IN THE PREVENTION OF PHOTOAGING” (Bernstein, Eric F., priority 1996, dated 1997)
# “And” between values parts separate entries of the source, which are not always exact repeats. Equal values may be shown once.
# Columns and labels:
# [1] = tested on: human elastin promoter; assay: UVA/8-MOP (PUVA)-induced promoter activation (CAT activity) in fibroblast cultures from transgenic mice; format: cell-based
# Method: Because a response to UVA alone in vitro is not measurable and the in vivo response is relatively small, 8-methoxypsoralen (8-MOP) was added to the system to enhance the promoter response to UVA.
# In these experiments, control cells received no UVA or 8-MOP. UVA controls received either 0.5, 0.75 or 1.0 J/cm^2 of UVA without prior incubation with 8-MOP. 8-MOP controls received 1 µg/ml of 8-MOP but no UVA. Tempol controls received 100 mM Tempol and no UVA or 8-MOP. PUVA-treated cells were preincubated with 1.0 µg/ml of 8-MOP in PBS and then exposed to 0.5, 0.75 or 1.0 J/cm^2. Tempol treated cells were pretreated with 100 mM Tempol 12.5 minutes prior to UVA exposure. 8-MOP was also added to these cells at the same time as the Tempol.
# The addition of Tempol to the cultures reduced the PUVA-induced increase in CAT activity to 1.5-, 1.2- and 2.0-fold that of controls, respectively, thus almost completely eliminating the PUVA-induced increase in CAT activity.
# Fibroblast cultures were established from the skin of transgenic mice by explanting tissue specimens onto plastic tissue culture dishes and allowing cells to migrate to the surrounding area. The primary cultures were maintained in Dulbecco's modified Eagle's medium supplemented with 10% fetal calf serum, 2 mM L-glutamine and antibiotics, at 37°C. The primary cell cultures were passaged by trypsinization, and the subcultures in passages three or four were utilized for UVB treatment. After UV exposure, the cells were incubated in tissue culture medium for 24 hours, and then harvested for determination of CAT activity.
# To measure the expression of the human elastin promoter/CAT reporter gene construct in the skin of transgenic mice and in fibroblast cultures established from these animals, CAT activity was determined. For extraction of the CAT from skin, the specimens were homogenized in 0.25 Tris-HCl, pH 7.5, using a tissue homogenizer (Brinkmann Instruments, Inc. Westbury, NY). The homogenates were centrifuged at 10,000 X g for 15 minutes at 4°C and the protein concentration in the supernatant determined by a commercial protein assay kit (Bio-Rad Laboratories, Richmond, CA). Aliquots of the supernatant containing 100 µg of protein were used for assay of CAT activity by incubation with [^14C] chloramphenicol in accordance with well-known procedures. The acetylated and non-acetylated forms of radioactive chloramphenicol were separated by thin-layer chromatography and CAT activity was determined by the radioactivity in the acetylated forms as a percent of the total radioactivity in each sample.
# Irradiation with UVA was performed using a closely spaced array of seven Sylvania FR40T12 PUVA lamps filtered through window glass of 2 mm thickness to remove wavelengths below 320 nm. The energy output at 38 cm from the array was measured with a Solar Light Model 3D UVA and UVB detector (Solar Light Company, Philadelphia, PA). The output of the lamps filtered through the window glass was 2.02 mW/cm^2, with no detectable UVB.
# [2] = Absorption spectrum; format: physicochemical
# [3] = tested on: human elastin promoter; assay: Transgenic mouse model of photoaging: human elastin promoter/CAT reporter activity in skin after UVB; settings: in vivo
# [4] = in vivo; cited from earlier work
# [5] = tested on: human elastin promoter; assay: UVB-induced promoter activation (CAT activity) in fibroblast cultures from transgenic mice
Structure (SMILES),"CAT activity ([1]; 1 µg/ml 8-MOP and 0.5 J/cm^2 UVA, no Tempol, relative to controls) [fold]","CAT activity ([1]; 1 µg/ml 8-MOP and 0.75 J/cm^2 UVA, no Tempol, relative to controls) [fold]","CAT activity ([1]; 1 µg/ml 8-MOP and 1.0 J/cm^2 UVA, no Tempol, relative to controls) [fold]","CAT activity ([1]; 8-MOP alone (1 µg/ml), no UVA)",absorption in the UVA range [2],CAT activity [3],CAT activity [1],protection against the PUVA-induced increases in CAT activity [1],detection in the blood following application [4],% Protection from UVB [5],further reduction of CAT activity by scavenging properties [5] [%],reduction in CAT activity from cells treated with UVB alone [5] [fold]
"COc1c2occc2cc2ccc(=O)oc12 [8-MOP, 8-methoxypsoralen, reference compound]",2.7,9.0,21.4,failed to produce significant CAT activity,,,,,,,,
"CC1(C)CC(O)CC(C)(C)N1[O] [Tempol, 4-hydroxy-2,2,6,6-tetramethyl-piperidinyloxy, free radical]",,,,,very little absorption,1.7 fold and 3.3 fold,1.5 fold and 1.2 fold and 2.0 fold,failed to afford protection,undetectable,41 p<0.01% and 74 p<0.001% and 69 p<0.001% and 42 p<0.001%,38,~6
